Data: the NIST ThermoML archive (doi:10.1016/j.jct.2011.12.035)

Experiment: xn = mol fraction of the nth substance listed
Conditions: Gas, Buoyancy - hydrostatic balance with magnetic suspension - one sinker

N#N [nitrogen] + O=C=O
Conditions	mass density [kg/m3]
250.01 K, 994.48 kPa, x2 = 0.2	15.21
250.02 K, 1979.3 kPa, x2 = 0.2	30.827
250.02 K, 4032.4 kPa, x2 = 0.2	65.204
250.02 K, 6013.2 kPa, x2 = 0.2	100.543
250.02 K, 8000.9 kPa, x2 = 0.2	137.785
250.02 K, 10004 kPa, x2 = 0.2	176.401
250.02 K, 12010 kPa, x2 = 0.2	215.101
250.02 K, 14018 kPa, x2 = 0.2	252.741
250.02 K, 16027 kPa, x2 = 0.2	288.385
250.02 K, 18039 kPa, x2 = 0.2	321.449
250.02 K, 19633 kPa, x2 = 0.2	345.629
250.04 K, 2996.3 kPa, x2 = 0.2	47.559
250.04 K, 4997.5 kPa, x2 = 0.2	82.144
250.05 K, 488.24 kPa, x2 = 0.2	7.397
250.05 K, 997.91 kPa, x2 = 0.2	15.262
250.05 K, 6997.7 kPa, x2 = 0.2	118.767
250.05 K, 8998.8 kPa, x2 = 0.2	156.893
250.05 K, 11001 kPa, x2 = 0.2	195.63
250.05 K, 13005 kPa, x2 = 0.2	233.864
250.05 K, 15008 kPa, x2 = 0.2	270.511
250.05 K, 17012 kPa, x2 = 0.2	304.796
250.05 K, 17639 kPa, x2 = 0.2	314.981
274.99 K, 998.23 kPa, x2 = 0.2	13.8
274.99 K, 1987.8 kPa, x2 = 0.2	27.804
274.99 K, 3995.6 kPa, x2 = 0.2	57.18
274.99 K, 5997.2 kPa, x2 = 0.2	87.563
274.99 K, 7998.9 kPa, x2 = 0.2	118.772
274.99 K, 10000 kPa, x2 = 0.2	150.404
274.99 K, 12005 kPa, x2 = 0.2	182.017
274.99 K, 14006 kPa, x2 = 0.2	213.01
274.99 K, 16009 kPa, x2 = 0.2	243.011
274.99 K, 18043 kPa, x2 = 0.2	272.044
274.99 K, 19430 kPa, x2 = 0.2	290.888
275.02 K, 996.58 kPa, x2 = 0.501	16.162
275.02 K, 1993.3 kPa, x2 = 0.501	33.323
275.02 K, 2996.6 kPa, x2 = 0.501	51.754
275.02 K, 3997.4 kPa, x2 = 0.501	71.374
275.02 K, 4998.7 kPa, x2 = 0.501	92.411
275.02 K, 5999.5 kPa, x2 = 0.501	114.98
275.02 K, 7003.4 kPa, x2 = 0.501	139.278
275.02 K, 8006 kPa, x2 = 0.501	165.225
275.02 K, 9125.5 kPa, x2 = 0.501	196.081
275.02 K, 10029 kPa, x2 = 0.501	222.169
275.02 K, 11018 kPa, x2 = 0.501	251.523
275.02 K, 12025 kPa, x2 = 0.501	281.541
275.02 K, 13025 kPa, x2 = 0.501	310.916
275.03 K, 14032 kPa, x2 = 0.501	339.405
275.03 K, 15032 kPa, x2 = 0.501	366.266
275.03 K, 15926 kPa, x2 = 0.501	388.806
275.04 K, 17027 kPa, x2 = 0.501	414.634
275.04 K, 17563 kPa, x2 = 0.501	426.437
299.95 K, 2996.2 kPa, x2 = 0.2	38.386
299.95 K, 4996.3 kPa, x2 = 0.2	64.833
299.95 K, 6997.1 kPa, x2 = 0.2	91.756
299.95 K, 8997.6 kPa, x2 = 0.2	118.906
299.95 K, 11032 kPa, x2 = 0.2	146.5
299.95 K, 13037 kPa, x2 = 0.2	173.362
299.95 K, 15002 kPa, x2 = 0.2	199.149
299.95 K, 17077 kPa, x2 = 0.2	225.549
299.95 K, 18151 kPa, x2 = 0.2	238.85
299.96 K, 492.88 kPa, x2 = 0.2	6.193
299.96 K, 984.74 kPa, x2 = 0.2	12.423
299.96 K, 995.87 kPa, x2 = 0.501	14.686
299.96 K, 15998 kPa, x2 = 0.501	308.658
299.97 K, 1995.1 kPa, x2 = 0.501	30.061
299.97 K, 2998.8 kPa, x2 = 0.501	46.195
299.97 K, 4000.2 kPa, x2 = 0.501	62.993
299.97 K, 5015.8 kPa, x2 = 0.501	80.785
299.97 K, 6023.7 kPa, x2 = 0.501	99.216
299.97 K, 7004.9 kPa, x2 = 0.501	117.9
299.97 K, 8009.1 kPa, x2 = 0.501	137.74
299.97 K, 9014.3 kPa, x2 = 0.501	158.299
299.97 K, 9993.3 kPa, x2 = 0.501	178.967
299.97 K, 9996.5 kPa, x2 = 0.501	178.959
299.97 K, 10996 kPa, x2 = 0.501	200.469
299.97 K, 11995 kPa, x2 = 0.501	222.215
299.97 K, 12998 kPa, x2 = 0.501	244.208
299.97 K, 13996 kPa, x2 = 0.501	266
299.97 K, 14996 kPa, x2 = 0.501	287.528
299.97 K, 16996 kPa, x2 = 0.501	329.04
299.97 K, 17997 kPa, x2 = 0.501	348.774
299.97 K, 19020 kPa, x2 = 0.501	368.091
299.97 K, 19970 kPa, x2 = 0.501	385.259
324.96 K, 1994 kPa, x2 = 0.2	23.265
324.96 K, 1994.1 kPa, x2 = 0.2	23.265
324.96 K, 3976.6 kPa, x2 = 0.2	46.775
324.96 K, 5997.1 kPa, x2 = 0.2	70.986
324.96 K, 7997.5 kPa, x2 = 0.2	95.062
324.96 K, 9999.3 kPa, x2 = 0.2	119.106
324.96 K, 12001 kPa, x2 = 0.2	142.924
324.96 K, 14002 kPa, x2 = 0.2	166.343
324.96 K, 16004 kPa, x2 = 0.2	189.249
324.96 K, 18002 kPa, x2 = 0.2	211.461
324.96 K, 19964 kPa, x2 = 0.2	232.536
324.98 K, 974.07 kPa, x2 = 0.501	13.176
324.98 K, 1991.5 kPa, x2 = 0.501	27.367
324.98 K, 2996.4 kPa, x2 = 0.501	41.83
324.98 K, 3995.3 kPa, x2 = 0.501	56.615
324.98 K, 4997.2 kPa, x2 = 0.501	71.872
324.98 K, 5995.1 kPa, x2 = 0.501	87.485
324.98 K, 6998.1 kPa, x2 = 0.501	103.583
324.98 K, 7998.2 kPa, x2 = 0.501	120.002
324.98 K, 9001.9 kPa, x2 = 0.501	136.826
